Assay results: patent publication US10770169B2, “Method of providing a treatment to a subject based on a dynamic pathway map” (THE REGENTS OF THE UNIVERSITY OF CALIFORNIA, priority 2010, dated 2020)

Test system: panel of 55 breast cancer cell lines
Experiment: Cell growth inhibition assay (Cell Titer Glo, 72 h, 9 doses; GI50, TGI, LC50)
Type: cell-based, human
Details: value is the negative log10 of mol/L

Row | Compound | GI50 (cell line AU565) | GI50 (cell line BT20) | GI50 (cell line BT474) | GI50 (cell line CAMA1) | GI50 (cell line HCC38) | GI50 (cell line HCC1143) | GI50 (cell line HCC1187) | GI50 (cell line HCC1428) | GI50 (cell line HCC1500) | GI50 (cell line HCC1937) | GI50 (cell line HCC1954) | GI50 (cell line HCC2185) | GI50 (cell line MDAMB436) | GI50 (cell line MDAMB453) | GI50 (cell line SKBR3) | GI50 (cell line SUM149PT) | GI50 (cell line SUM1315MO) | GI50 (cell line UACC812) | GI50 (cell line ZR75B) | GI50 (cell line ZR751) | other results
1 | ICRF-193 | 6.14 | 4.38 | 4.30 | 4.30 | 6.54 | 4.30 | 6.05 | 4.38 | 4.66 | 4.30 | 4.82 | 5.69 | 4.30 | 4.45 | 5.22 | 4.75 | 6.21 | 4.66 | 6.60 | 6.07 | GI50 (AU565 cell line, censored GI50 values): 6.14; GI50 (HCC38 cell line, censored GI50 values): 6.54; GI50 (HCC1187 cell line, censored GI50 values): 6.05; GI50 (HCC1500 cell line, censored GI50 values): 4.66; GI50 (HCC1954 cell line, censored GI50 values): 4.82; GI50 (HCC2185 cell line, censored GI50 values): 5.69; GI50 (SKBR3 cell line, censored GI50 values): 5.22; GI50 (SUM149PT cell line, censored GI50 values): 4.75; GI50 (SUM159PT cell line, censored GI50 values): 6.38; GI50 (SUM1315MO2 cell line, censored GI50 values): 6.21; GI50 (UACC812 cell line, censored GI50 values): 4.66; GI50 (ZR75B cell line, censored GI50 values): 6.60; GI50 (ZR751 cell line, censored GI50 values): 6.07; GI50 (cell line HCC1806): 4.30; GI50 (cell line SUM159PT): 6.38
2 | COc1cc2c(Nc3ccc(NC(=O)c4ccccc4)cc3)ncnc2cc1OCCCN1CCOCC1 [ZM 447439] | 5.82 | 5.29 | 4.20 | 5.40 | 6.24 | 4.98 | 6.19 | 5.13 | 5.28 | 5.23 | 4.48 | 5.92 | 5.33 | 4.45 | 4.77 | 4.18 | 4.48 | 4.88 | 5.00 | 5.46 | GI50 (cell line BT483): 4.57; GI50 (cell line HCC70): 6.01; GI50 (cell line HCC1419): 5.32; GI50 (cell line HCC3153): 4.48; GI50 (cell line MDAMB134V): 4.66; GI50 (cell line MDAMB175V): 4.28; GI50 (cell line MDAMB361): 5.53; GI50 (cell line MDAMB415): 4.48; GI50 (cell line MDAMB468): 6.18; GI50 (cell line SUM52PE): 5.40; GI50 (cell line SUM185PE): 4.50; GI50 (cell line T47D): 4.94
